In article PMC9405596, “Evaluation of the Anti-Leishmania mexicana and -Trypanosoma brucei Activity and Mode of Action of 4,4′-(Arylmethylene)bis(3-methyl-1-phenyl-1H-pyrazol-5-ol)” (Biomedicines, 2022):
Read-outs that look alike come from different tables or passages of the source.

Legend:
[1] = MTT cytotoxicity assay, murine macrophages; type: cell-based; details: mouse, RAW 264.7 macrophage cells, RAW 264.7, 48 h
Procedure: (§1) Murine macrophages (cell line RAW 264.7, ATCC® TIB-71™) were grown in Dulbecco’s Modified Eagle Medium (DMEM) (Gibco, Invitrogen, Waltham, MA, USA) supplemented with 10% fetal bovine serum (FBS) (Eurobio) and 100 IU/mL penicillin + 100 µg/mL streptomycin (Gibco), at 37 °C, in an atmosphere containing 5% CO2. Human hepatocyte cell line HepG2 (ATCC® HB-8065™) was grown in MEM (Gibco, Invitrogen) supplemented with 10% FBS (Gibco, Invitrogen), 1% NEAA (Gibco, Invitrogen), and 1% L-glutamine (Gibco, Invitrogen). The medium was renewed twice a week. For both cell lines, the viability was determined using the MTT assay as described before for leishmanicidal activity assessment, with some variations. Here, 5 × 10^4 cells/well in a final volume of 100 µL were seeded into a 96-well plate, in triplicate for RAW macrophages and in duplicate for HepG2. Saponin (2.4 mg/mL) and untreated cells were used as positive control and negative control, respectively. Compounds were dissolved in DMSO to obtain different serial concentrations (1.56 to 800 µM) for RAW macrophages and 100–0.001 µM for HepG2. The final concentration of DMSO in each well was 0.5%. After exposure to compounds for 48 h and 72 h for RAW and HepG2 cells, respectively, 10 µL/well of MTT (5 mg/mL in PBS) was added, incubated at 37 °C for 2 h in darkness, and cells were pelleted via centrifugation at 4400 rpm for 10 min. The medium was removed, and 100 µL/well of DMSO was added to dissolve formazan. The absorbance at 570 and 630 nm was recorded following the same procedure as with parasites.

[2] = system: L. mexicana promastigotes; assay: MTT viability assay against L. mexicana promastigotes; type: cell-based, Leishmania mexicana; details: for IC50: 48 h; for L. mexicana Promastigote SI vs. Macrophage: CC50 RAW macrophages/IC50 L. mexicana; for L. mexicana Promastigote SI vs. Hepatocytes: CC50 HepG2 hepatocytes/IC50 L. mexicana
Procedure: The leishmanicidal activity against promastigotes from L. mexicana was evaluated by measuring parasites’ mitochondrial activity using the MTT (Thiazolyl Blue Tetrazolium Bromide) colorimetric assay as described previously. […] The medium was renewed every third day and subcultures were prepared when parasite density reached 1 × 10^7 parasites/mL. A Neubauer chamber was used to determine parasite density.

[3] = MTT cytotoxicity assay, HepG2; type: cell-based; details: human, HepG2 cells, HepG2, 72 h, read-out: CC50 HepG2 Hepatocytes
Procedure: as §1

[4] = system: bloodstream form of T. b. brucei (strain 427); assay: Bioluminescence viability assay against bloodstream T. b. brucei expressing luciferase; details: for activity at 10 µM / inhibition at 10 µM / IC50: 24 h; for activity at 10 µM: read-out: T. brucei bloodstream % Growth (10 µM), 10 µM, 24 h; for inhibition at 10 µM: read-out: T. brucei growth inhibition at 10 µM; for anti-T. brucei activity in preliminary screening, in words: 10 µM; for T. brucei SI vs. Hepatocytes: CC50 HepG2 hepatocytes/IC50 T. brucei; for T. brucei bloodstream SI vs. Macrophages: CC50 RAW macrophages/IC50 T. brucei
[5] = Leishmania mexicana, read-out: L. mexicana Promastigote IC50, promastigotes, 48 h, MTT
[6] = read-out: L. mexicana Promastigote IC50, promastigotes, MTT
[7] = Trypanosoma brucei, read-out: T. brucei bloodstream IC50, 24 h, bioluminescence

| SMILES | CC50 at 48 h [1] [µM] | IC50 [2, 5] [µM] | CC50 at 72 h [3] [µM] | L. mexicana Promastigote SI vs. Macrophage [2] | activity at 10 µM ([4]; Trypanosoma brucei) [%] | inhibition at 10 µM ([4]; Trypanosoma brucei) [%] | melting point | L. mexicana Promastigote SI vs. Hepatocytes [2] | IC50 [2, 6] [µM] | anti-T. brucei activity in preliminary screening, in words [4] | T. brucei SI vs. Hepatocytes [4] | T. brucei bloodstream SI vs. Macrophages [4] | IC50 [4, 7] [µM] | SI against T. brucei, range over both mammalian cell lines ([4]; murine macrophages and HepG2 hepatocytes) | IC50 ([4]; read-out: T. brucei bloodstream IC50, bioluminescence) [µM] | CC50 at 48 h ([1]; positive control) [µg/mL] |
| --- | --- | --- | --- | --- | --- | --- | --- | --- | --- | --- | --- | --- | --- | --- | --- | --- |
| C[C@@H]1[C@H](O)[C@@H](C)/C=C/C=C/C=C/C=C/C=C/C=C/C=C/[C@H](O[C@@H]2O[C@H](C)[C@@H](O)[C@H](N)[C@@H]2O)C[C@@H]2O[C@](O)(C[C@@H](O)C[C@@H](O)[C@H](O)CC[C@@H](O)C[C@@H](O)CC(=O)O[C@H]1C)C[C@H](O)[C@H]2C(=O)O [Amphotericin B, reference compound] | > 5 | 0.17 ± 0.05 | – | – | – | – | – | – | – | – | – | – | – | – | – | – |
| Cc1nn(-c2ccccc2)c(O)c1C(c1ccccc1O)c1c(C)nn(-c2ccccc2)c1O [Compound 2a] | 51 ± 6 | 12 ± 3 | > 100 | 4.3 | 77 ± 5 | 23 | 219.5 to 220.6 °C | – | – | – | – | – | – | – | – | – |
| Cc1nn(-c2ccccc2)c(O)c1C(c1ccccc1)c1c(C)nn(-c2ccccc2)c1O [Compound 2b] | 206 ± 28 | 32 ± 7 | > 100 | 6.4 | 74 ± 7 | – | 159.5 to 161.1 °C | >3.1 | – | – | – | – | – | – | – | – |
| Cc1nn(-c2ccccc2)c(O)c1C(c1ccccc1[N+](=O)[O-])c1c(C)nn(-c2ccccc2)c1O [Compound 2c] | 53 ± 6 | 17 ± 8 | 26 ± 16 | 3.1 | 68 ± 5 | – | 210 to 211 °C | 1.5 | – | – | – | – | – | – | – | – |
| Cc1nn(-c2ccccc2)c(O)c1C(c1cccc([N+](=O)[O-])c1)c1c(C)nn(-c2ccccc2)c1O [Compound 2d] | 75 ± 15 | ≤ 10 | > 100 | 7.5 | 73 ± 4 | – | – | >10 | 10 ± 3 | – | – | – | – | – | – | – |
| COc1ccc(C(c2c(C)nn(-c3ccccc3)c2O)c2c(C)nn(-c3ccccc3)c2O)cc1 [Compound 2e] | – | > 50 | – | – | > 100 | – | 176 to 177 °C | – | – | inactive | – | – | – | – | – | – |
| COc1ccccc1C(c1c(C)nn(-c2ccccc2)c1O)c1c(C)nn(-c2ccccc2)c1O [Compound 2f] | 93 ± 7 | 22 ± 9 | > 100 | 4.2 | ≤ 50 | – | – | >4.5 | – | – | >12.5 | 11.6 | 8 ± 0.27 | 11.6–18 | – | – |
| Cc1nn(-c2ccccc2)c(O)c1C(c1ccc(N(C)C)cc1)c1c(C)nn(-c2ccccc2)c1O [Compound 2g] | – | > 50 | – | – | > 100 | – | 188.8 to 189.6 °C | – | – | inactive | – | – | – | – | – | – |
| Cc1nn(-c2ccccc2)c(O)c1C(c1cc(O)ccc1[N+](=O)[O-])c1c(C)nn(-c2ccccc2)c1O [Compound 2h] | 108 ± 22 | 21 ± 4 | > 100 | 5.1 | 89 ± 3 | – | 205 to 207 °C (dec.) | >4.8 | – | – | – | – | – | – | – | – |
| COc1cccc(C(c2c(C)nn(-c3ccccc3)c2O)c2c(C)nn(-c3ccccc3)c2O)c1 [Compound 2i] | 232 ± 25 | 10 ± 3 | > 100 | 23.2 | > 100 | – | 205.7 to 207.1 °C | >10 | – | inactive | – | – | – | – | – | – |
| COc1ccc(C(c2c(C)nn(-c3ccccc3)c2O)c2c(C)nn(-c3ccccc3)c2O)cc1O [Compound 2j] | 113 ± 15 | 10 ± 4 | > 100 | 11.3 | > 100 | – | 200 to 202 °C | >10 | – | inactive | – | – | – | – | – | – |
| Cc1nn(-c2ccccc2)c(O)c1C(c1ccc([N+](=O)[O-])cc1)c1c(C)nn(-c2ccccc2)c1O [Compound 2k] | 117 ± 15 | ≤ 10 | 15 ± 6 | 13 | 88 ± 4 | – | – | 1.7 | 9 ± 1 | – | – | – | – | – | – | – |
| Cc1nn(-c2ccccc2)c(O)c1C(c1cccc(O)c1)c1c(C)nn(-c2ccccc2)c1O [Compound 2l] | 108 ± 33 | 18 ± 5 | > 100 | 6 | > 100 | 0 | 165 to 167 °C | >5.6 | – | inactive | – | – | – | – | – | – |
| COc1cc(C(c2c(C)nn(-c3ccccc3)c2O)c2c(C)nn(-c3ccccc3)c2O)cc(OC)c1O [Compound 2m] | 286 ± 51 | 23 ± 5 | > 100 | 12.4 | > 100 | – | 208 to 209.5 °C | >4.3 | – | inactive | – | – | – | – | – | – |
| Cc1nn(-c2ccccc2)c(O)c1C(c1ccc(O)cc1)c1c(C)nn(-c2ccccc2)c1O [Compound 2o] | – | > 50 | – | – | > 100 | 0 | 217.2 to 218.9 °C | – | – | inactive | – | – | – | – | – | – |
| Cc1nn(-c2ccccc2)c(O)c1C(c1ccc(F)cc1)c1c(C)nn(-c2ccccc2)c1O [Compound 2p] | 43 ± 6 | 17 ± 1 | 13 ± 2 | 2.5 | 79 ± 8 | – | 183.8 to 185.8 °C | 0.8 | – | – | – | – | – | – | – | – |
| COC(=O)c1ccc(C(c2c(C)nn(-c3ccccc3)c2O)c2c(C)nn(-c3ccccc3)c2O)cc1 [Compound 2q] | 111 ± 2 | 13 ± 3 | 29 ± 4 | 8.5 | ≤ 50 | – | – | 2.2 | – | – | 4.9 | 19 | 6 | – | 5.9 ± 0.6 | – |
| Cc1nn(-c2ccccc2)c(O)c1C(c1ccc(OC(F)(F)F)cc1)c1c(C)nn(-c2ccccc2)c1O [Compound 2s] | 49 ± 15 | – | 26 ± 15 | 14.3 | > 100 | – | 174.5 to 176 °C | 8.7 | – | inactive | – | – | – | – | – | – |
| Cc1nn(-c2ccccc2)c(O)c1C(c1cccc(F)c1)c1c(C)nn(-c2ccccc2)c1O [Compound 2t] | 115 ± 21 | 11 ± 1 | 20 ± 11 | 10.5 | > 100 | – | 178 to 179 °C | 1.8 | – | inactive | – | – | – | – | – | – |
| CSc1ccc(C(c2c(C)nn(-c3ccccc3)c2O)c2c(C)nn(-c3ccccc3)c2O)cc1 [Compound 2u] | 96 ± 27 | 30 ± 10 | 21 ± 10 | 3.2 | > 100 | – | 209.1 to 211.3 °C | 0.7 | – | inactive | – | – | – | – | – | – |
| CC1(C)[C@@H](O[C@@H]2OC[C@H](O[C@@H]3OC[C@@H](O)[C@H](O)[C@H]3O)[C@H](O[C@H]3O[C@H](CO)[C@@H](O)[C@H](O)[C@H]3O)[C@H]2O[C@@H]2O[C@H](CO)[C@@H](O)[C@H](O)[C@H]2O[C@H]2O[C@H](CO)[C@@H](O)[C@H](O)[C@H]2O)CC[C@]2(C)[C@H]3CCC45OCC6(CC[C@@](C)(C=O)C[C@@H]64)[C@H](O)C[C@@]5(C)[C@]3(C)CC[C@@H]12 (stereo partly drawn) [Saponin, reference compound] | – | – | – | – | – | – | – | – | – | – | – | – | – | – | – | 160 ± 30 |
